{
  "source": "patent US10597388B2",
  "about": "“Pyridazinone herbicides” (FMC CORPORATION, priority 2014, dated 2020)",
  "experiment_in_all_cases": "Test E greenhouse herbicide test, pre- and postemergence",
  "type_in_all_cases": "in vivo",
  "key": {"corn (Zea mays)": {"test_system": "corn (Zea mays)", "how_it_was_run": "(§1)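 Compounds in surfactant-containing solvent are applied to soil right after sowing (silt loam) and, in parallel, to 1- to 4-leaf plants in a peat-based medium. Weed control is scored visually on a 0 (none) to 100 (complete) scale at 14 to 21 d.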"}, "[1]": {"test_system": "arrowleaf sida (Sida rhombifolia)", "how_it_was_run": "as §1"}, "[2]": {"test_system": "velvetleaf (Abutilon theophrasti)", "conditions": "Preemergence", "how_it_was_run": "as §1"}, "[3]": {"test_system": "lambsquarters (Chenopodium album)", "conditions": "Preemergence", "how_it_was_run": "as §1"}, "[4]": {"test_system": "nutsedge, yellow (yellow nutsedge, Cyperus esculentus)", "conditions": "Preemergence", "how_it_was_run": "as §1"}, "[5]": {"test_system": "foxtail, green (green foxtail, Setaria viridis)", "conditions": "Preemergence", "how_it_was_run": "as §1"}, "soybean (Glycine max)": {"test_system": "soybean (Glycine max)", "how_it_was_run": "as §1"}, "[6]": {"test_system": "wild poinsettia (Euphorbia heterophylla)", "how_it_was_run": "as §1"}, "[7]": {"test_system": "johnsongrass (Sorghum halepense)", "conditions": "Preemergence", "how_it_was_run": "as §1"}, "[8]": {"test_system": "Italian ryegrass (Lolium multiflorum)", "how_it_was_run": "as §1"}, "[9]": {"test_system": "pigweed, palmer (palmer pigweed, Amaranthus palmeri)", "how_it_was_run": "as §1"}, "[10]": {"test_system": "momingglory (Ipomoea coccinea)", "conditions": "Preemergence", "how_it_was_run": "as §1"}, "[11]": {"test_system": "barnyardgrass (Echinochloa crus-galli)", "how_it_was_run": "as §1"}, "[12]": {"test_system": "dayflower (Virginia (VA) dayflower, Commelina virginica)", "how_it_was_run": "as §1"}, "[13]": {"conditions": "62 g ai/ha, Postemergence, scale 0 to 100 (0 no effect, 100 complete control)"}, "[14]": {"conditions": "62 g ai/ha, Preemergence, scale 0 to 100 (0 no effect, 100 complete control)"}, "[15]": {"conditions": "125 g ai/ha, Postemergence, scale 0 to 100 (0 no effect, 100 complete control)"}, "[16]": {"conditions": "125 g ai/ha, Preemergence, scale 0 to 100 (0 no effect, 100 complete control)"}, "[17]": {"conditions": "Postemergence, 16 g ai/ha, visual, scale 0 no effect to 100 complete control"}, "[18]": {"conditions": "Postemergence, 31 g ai/ha, visual, scale 0 no effect to 100 complete control"}, "[19]": {"conditions": "Preemergence, 16 g ai/ha, scale 0 to 100, 0 no effect, 100 complete control"}, "[20]": {"conditions": "Preemergence, 31 g ai/ha, scale 0 to 100, 0 no effect, 100 complete control"}, "[21]": {"conditions": "62 g ai/ha, scale 0 to 100 (0 no effect, 100 complete control)"}, "[22]": {"conditions": "125 g ai/ha, scale 0 to 100 (0 no effect, 100 complete control)"}, "[23]": {"conditions": "16 g ai/ha, scale 0 to 100, 0 no effect, 100 complete control"}, "[24]": {"conditions": "31 g ai/ha, scale 0 to 100, 0 no effect, 100 complete control"}},
  "data": [
    {"smiles": "CCCC(=O)Oc1c(C)nn(C)c(=O)c1-c1c(C)sc2ccc(C)cc12", "note": "[Compound 105]", "values": [
      {"measurement": "Plant response rating, Corn", "setting": "corn (Zea mays); [13]", "value": 15},
      {"measurement": "Plant response rating, Corn", "setting": "corn (Zea mays); [14]", "value": 0},
      {"measurement": "Plant response rating, Corn", "setting": "corn (Zea mays); [15]", "value": 20},
      {"measurement": "Plant response rating, Corn", "setting": "corn (Zea mays); [16]", "value": 0},
      {"measurement": "Plant response rating, Corn", "setting": "corn (Zea mays); [17]", "value": 0},
      {"measurement": "Plant response rating, Corn", "setting": "corn (Zea mays); [18]", "value": 5},
      {"measurement": "Plant response rating, Corn", "setting": "corn (Zea mays); [19]", "value": 0},
      {"measurement": "Plant response rating, Corn", "setting": "corn (Zea mays); [20]", "value": 0},
      {"measurement": "Plant response rating, Arrowleaf Sida", "setting": "[1]; [13]", "value": 60},
      {"measurement": "Plant response rating, Arrowleaf Sida", "setting": "[1]; [14]", "value": 40},
      {"measurement": "Plant response rating, Arrowleaf Sida", "setting": "[1]; [15]", "value": 70},
      {"measurement": "Plant response rating, Arrowleaf Sida", "setting": "[1]; [16]", "value": 50},
      {"measurement": "Plant response rating, Arrowleaf Sida", "setting": "[1]; [17]", "value": 50},
      {"measurement": "Plant response rating, Arrowleaf Sida", "setting": "[1]; [18]", "value": 60},
      {"measurement": "Plant response rating, Arrowleaf Sida", "setting": "[1]; [19]", "value": 0},
      {"measurement": "Plant response rating, Arrowleaf Sida", "setting": "[1]; [20]", "value": 0},
      {"measurement": "Plant response rating, Velvetleaf", "setting": "[2]; [21]", "value": 70},
      {"measurement": "Plant response rating, Velvetleaf", "setting": "[2]; [22]", "value": 95},
      {"measurement": "Plant response rating, Velvetleaf", "setting": "[2]; [23]", "value": 0},
      {"measurement": "Plant response rating, Velvetleaf", "setting": "[2]; [24]", "value": 50},
      {"measurement": "Plant response rating, Lambsquarters", "setting": "[3]; [21]", "value": 100},
      {"measurement": "Plant response rating, Lambsquarters", "setting": "[3]; [22]", "value": 100},
      {"measurement": "Plant response rating, Lambsquarters", "setting": "[3]; [23]", "value": 0},
      {"measurement": "Plant response rating, Lambsquarters", "setting": "[3]; [24]", "value": 0},
      {"measurement": "Plant response rating, Nutsedge, Yellow", "setting": "[4]; [21]", "value": 10},
      {"measurement": "Plant response rating, Nutsedge, Yellow", "setting": "[4]; [22]", "value": 40},
      {"measurement": "Plant response rating, Nutsedge, Yellow", "setting": "[4]; [23]", "value": 0},
      {"measurement": "Plant response rating, Nutsedge, Yellow", "setting": "[4]; [24]", "value": 0},
      {"measurement": "Plant response rating, Foxtail, Green", "setting": "[5]; [21]", "value": 30},
      {"measurement": "Plant response rating, Foxtail, Green", "setting": "[5]; [22]", "value": 40},
      {"measurement": "Plant response rating, Foxtail, Green", "setting": "[5]; [23]", "value": 0},
      {"measurement": "Plant response rating, Foxtail, Green", "setting": "[5]; [24]", "value": 0},
      {"measurement": "Plant response rating, Soybean", "setting": "soybean (Glycine max); [14]", "value": 0},
      {"measurement": "Plant response rating, Soybean", "setting": "soybean (Glycine max); [15]", "value": 25},
      {"measurement": "Plant response rating, Soybean", "setting": "soybean (Glycine max); [16]", "value": 75},
      {"measurement": "Plant response rating, Soybean", "setting": "soybean (Glycine max); [17]", "value": 0},
      {"measurement": "Plant response rating, Soybean", "setting": "soybean (Glycine max); [18]", "value": 10},
      {"measurement": "Plant response rating, Soybean", "setting": "soybean (Glycine max); [19]", "value": 0},
      {"measurement": "Plant response rating, Soybean", "setting": "soybean (Glycine max); [20]", "value": 0},
      {"measurement": "Plant response rating, Poinsettia, Wild", "setting": "[6]; [13]", "value": 25},
      {"measurement": "Plant response rating, Poinsettia, Wild", "setting": "[6]; [14]", "value": 10},
      {"measurement": "Plant response rating, Poinsettia, Wild", "setting": "[6]; [15]", "value": 30},
      {"measurement": "Plant response rating, Poinsettia, Wild", "setting": "[6]; [16]", "value": 10},
      {"measurement": "Plant response rating, Poinsettia, Wild", "setting": "[6]; [17]", "value": 30},
      {"measurement": "Plant response rating, Poinsettia, Wild", "setting": "[6]; [18]", "value": 30},
      {"measurement": "Plant response rating, Poinsettia, Wild", "setting": "[6]; [19]", "value": 0},
      {"measurement": "Plant response rating, Poinsettia, Wild", "setting": "[6]; [20]", "value": 10},
      {"measurement": "Plant response rating, Johnsongrass", "setting": "[7]; [21]", "value": 20},
      {"measurement": "Plant response rating, Johnsongrass", "setting": "[7]; [22]", "value": 20},
      {"measurement": "Plant response rating, Johnsongrass", "setting": "[7]; [23]", "value": 0},
      {"measurement": "Plant response rating, Johnsongrass", "setting": "[7]; [24]", "value": 0},
      {"measurement": "Plant response rating, Ryegrass, Italian", "setting": "[8]; [13]", "value": 70},
      {"measurement": "Plant response rating, Ryegrass, Italian", "setting": "[8]; [14]", "value": 95},
      {"measurement": "Plant response rating, Ryegrass, Italian", "setting": "[8]; [15]", "value": 80},
      {"measurement": "Plant response rating, Ryegrass, Italian", "setting": "[8]; [16]", "value": 100},
      {"measurement": "Plant response rating, Ryegrass, Italian", "setting": "[8]; [17]", "value": 30},
      {"measurement": "Plant response rating, Ryegrass, Italian", "setting": "[8]; [18]", "value": 50},
      {"measurement": "Plant response rating, Ryegrass, Italian", "setting": "[8]; [19]", "value": 75},
      {"measurement": "Plant response rating, Ryegrass, Italian", "setting": "[8]; [20]", "value": 90},
      {"measurement": "Plant response rating, Pigweed, Palmer", "setting": "[9]; [13]", "value": 70},
      {"measurement": "Plant response rating, Pigweed, Palmer", "setting": "[9]; [14]", "value": 98},
      {"measurement": "Plant response rating, Pigweed, Palmer", "setting": "[9]; [15]", "value": 70},
      {"measurement": "Plant response rating, Pigweed, Palmer", "setting": "[9]; [16]", "value": 90},
      {"measurement": "Plant response rating, Pigweed, Palmer", "setting": "[9]; [17]", "value": 75},
      {"measurement": "Plant response rating, Pigweed, Palmer", "setting": "[9]; [18]", "value": 70},
      {"measurement": "Plant response rating, Pigweed, Palmer", "setting": "[9]; [19]", "value": 0},
      {"measurement": "Plant response rating, Pigweed, Palmer", "setting": "[9]; [20]", "value": 0},
      {"measurement": "Plant response rating, Morningglory", "setting": "[10]; [21]", "value": 70},
      {"measurement": "Plant response rating, Morningglory", "setting": "[10]; [22]", "value": 60},
      {"measurement": "Plant response rating, Morningglory", "setting": "[10]; [23]", "value": 40},
      {"measurement": "Plant response rating, Morningglory", "setting": "[10]; [24]", "value": 20},
      {"measurement": "Plant response rating, Barnyardgrass", "setting": "[11]; [13]", "value": 30},
      {"measurement": "Plant response rating, Barnyardgrass", "setting": "[11]; [14]", "value": 20},
      {"measurement": "Plant response rating, Barnyardgrass", "setting": "[11]; [15]", "value": 30},
      {"measurement": "Plant response rating, Barnyardgrass", "setting": "[11]; [16]", "value": 35},
      {"measurement": "Plant response rating, Barnyardgrass", "setting": "[11]; [17]", "value": 15},
      {"measurement": "Plant response rating, Barnyardgrass", "setting": "[11]; [18]", "value": 20},
      {"measurement": "Plant response rating, Barnyardgrass", "setting": "[11]; [19]", "value": 20},
      {"measurement": "Plant response rating, Dayflower, VA", "setting": "[12]; [13]", "value": 50},
      {"measurement": "Plant response rating, Dayflower, VA", "setting": "[12]; [14]", "value": 0},
      {"measurement": "Plant response rating, Dayflower, VA", "setting": "[12]; [15]", "value": 60},
      {"measurement": "Plant response rating, Dayflower, VA", "setting": "[12]; [16]", "value": 10},
      {"measurement": "Plant response rating, Dayflower, VA", "setting": "[12]; [17]", "value": 30},
      {"measurement": "Plant response rating, Dayflower, VA", "setting": "[12]; [18]", "value": 30},
      {"measurement": "Plant response rating, Dayflower, VA", "setting": "[12]; [19]", "value": 0},
      {"measurement": "Plant response rating, Dayflower, VA", "setting": "[12]; [20]", "value": 0}
    ]}
  ]
}
